Here are results for one substance from patent publication US20250027086A1, “COMPOSITIONS AND METHODS FOR TREATMENT OF CANCERS USING MODIFIED siRNA-GEM AGENTS” (Sirnaomics, Inc., priority 2022, published 2025).

For the data set, the system named is MiaPaCa-2 xenograft tumors. Briefly: Xenograft tumor growth in NU/NU mice after subcutaneous implantation of MiaPaCa tumor cells, intratumoral injections. The data set is classed as in vivo, mouse. The settings on record: vs control; for tumor weight: xenografts harvested Day 25, n=8, FIG. 14(a). As to the method: Twenty-four NU/NU nude mice were purchased from Charles River Laboratories (Frederick, MD) and each housed in a single cage with standard bedding, lighting and ad libitum feed.
The human pancreatic cell carcinoma MiaPaCa-2 cell line was obtained from American Type Culture Collection (ATCC, CRL-1420™) and cultured in DMEM with 10 percent fetal bovine serum and 1 percent pen-strep in a humidified incubator with temperature at 37 degrees C., and 5 percent CO2. Subcultures were made when cell volume reached ˜80-90 percent (roughly 3-5 days). Media was changed every 3 to 4 days. All experiments were performed when the cells reached approximately 80-90 percent confluence.
MiaPaCa tumor cells (2.5×10^6 cells) in 100 μl of growth media and 100 μl of Matrigel were injected subcutaneously into the left flank of each mouse on Day 0. Body weight measured using a digital scale, and tumor volume measured using a digital caliper, were recorded […]. Tumor volume was measured using external digital calipers with modified ellipsoid formula: ½(length×width^2).
The mice were assigned to one of three groups (n=8) approximately five to ten days after subcutaneous implantation of MiaPaCa cells, when tumors had reached 100 mm^3 in volume. Twice weekly (Mon. and Thurs.) for three-four weeks, mice in all three groups received intratumoral injections of 80 μl each. Mice in the control group were injected with non-silencing (NS) siRNA with HKP(+H) as a carrier. Mice in one of the treatment groups were injected with PGN7, i.e., GEM siRNA with HKP(+H)shk1 (2.z), (SEQ. ID No. 9-10). Mice in the second treatment group were injected with STD1, i.e., GEM siRNA with HKP(+H) chk1 (2.z) (SEQ. ID No. 3-4). All injections were given under isoflurane anesthesia to minimize discomfort
Tumor volume (mm^3) and body weights were measured on Days 0, 4, 7, 11, 14, 18, 21 and 25. Mean±SE for each group (PGN7, STD1 and control) were statistically compared using analysis of variance (ANOVA) with the Tukey test. Mice were also observed for excess growth, adverse reactions to treatments and other observable, adverse signs of health. Treatments were blinded to the tracers and data analysts.
All mice were sacrificed and the implanted xenograft removed on Day 26 after initial treatment (the last treatment given on Day 25). One-third of the xenograft was fixed in […] formalin for histological analysis; one-third was frozen and one-third was preserved in RNAlater stabilization and storage solution.

Entries after “also recorded” stand apart in the source; their conditions may differ.

Regarding “PGN7: modified siRNA-GEM RNAi agent (SEQ. ID No. 9-10): sense 5′-AAGAAAgAgau[GEM]uGuAu[GEM]AAu-3′; antisense 5′-AuUGAuACAGAuCuCuUuCuU[GEM][GEM]dTdT-3′ (sense AAGAAAGAGATCTGTATCAAT; antisense ATTGATACAGATCTCTTTCTTCCTT; GEM modifications; 2'-modified bases; dTdT overhang; modified_base 1 OTHER; 2'-O-methyl modified nucleotide; modified_base 2 OTHER; modified_base 3 OTHER; modified_base 4 OTHER; modified_base 5 OTHER; modified_base 6 OTHER; modified_base 7 OTHER; 2'-fluoro modified nucleotide; modified_b; 2'-O-me)”, the tumor volume entry (intratumoral twice weekly with HKP(+H), ANOVA Tukey, p<0.02, from 14 days, FIG. 14(c)) is recorded as “effectively attenuated the increase; also recorded: significantly reduced tumor volume; also recorded: attenuating the growth of pancreatic tumors”. Further, under “over 25 days, p>0.05, FIG. 14(b)”, the body weight entry was “did not differ”. The tumor weight result is, setting by setting: (p>0.05) “did not differ”; (p>0.05, listed as PGN 7) “did not differ significantly”.
